From patent publication US5985926A, “Method for inhibiting intracellular viral replication” (Cell Therapeutics, Inc., priority 1997, dated 1999)

Tests used:
NFκB = NFκB activation in 293tat cells, electrophoretic mobility shift assay; format: cell-based, human; settings: CT2576 12 μM, TNF-α 40 ng/ml or IL-1β 1 ng/ml
Description: (§1) Nuclear extracts (A) from 293tat cells were tested by EMSA for activation of NFκB. A radiolabeled 40-mer covering the NFκB sequences in the HIV promoter was used as a probe. Cells were incubated with CT2576 at 12 μM, human TNF-α at 40 ng/ml or IL-1β at 1 ng/ml, or pre-incubated for 30 min. with CT2576 and then stimulated with TNF-α or IL-1β for 18 hr prior to making extracts. RNA was extracted from 293tat cells (B) after treatment with CT2576 without or with TNF-α or IL-1β for 18 hr. Northern blots analysis were performed using probes derived from AP cDNA and G3PDH cDNA as a control for normalization of mRNA level. AP activity was determined in cell supernatants from the various samples.
(§2) NFκB binding activity in nuclear extracts (Dignam et al., Nucleic Acids Res. 11:1475-1489, 1983) of cells was measured by electrophoretic mobility-shift assay (EMSA) (Carthew et al., Cell 43:439-448, 1985) using 5'-labeled double-stranded synthetic DNA with two NF-κB motifs. Northern blot analysis was performed with total RNA run on 1% agarose/formaldehyde gel and probed with ^32 P-labeled cDNA of AP and glyceraldehyde-3-phosphate dehydrogenase (G3PDH).

AP mRNA in 293tat cells = test: AP mRNA level in 293tat cells, Northern blot; format: cell-based, human; settings: with TNF-α or IL-1β
Description: as §1, §2

[1] = system: HIV-LTR promoter (tat transactivation) in 293-EBNA cells; test: AP reporter gene expression from HIV-LTR promoter with tat expression vector, 293-EBNA cells; format: cell-based, HIV; human cells; settings: 293-EBNA cells, HIV promoter, in words
From the text: The plasmid construct, pHIV.AP, using the human immunodeficiency virus (HIV) long terminal repeat (LTR) promoter (derived from pU3R-III CAT, Sodroski et al., Science 227:171, 1985) to direct the expression of the sPAP reporter gene, was made by replacing the CMV promoter region from pCMV.AP with the HIV-LTR promoter. PHIV.AP was co-transfected with pSV2tat72, an expression vector for the 72 amino acids tat protein from HIV (Frankel and Pabo, Cell 55:1189-1193, 1988), into 293-EBNA cells (Invitrogen). The cultured cells were treated with various concentrations of the compounds. The expression of the alkaline phosphatase (AP) reporter gene in the individual cultures was measured by following change in absorbance at 405 nm of the cell conditioned media in the presence of a suitable substrate (e.g., ortho-nitrophenol phosphate) (Berger et al., Gene 66:1-10, 1988).
We set up a cell-based system with a cell line cotransfected with an expression plasmid using HIV-1-LTR promoter to direct synthesis of AP reporter gene and an expression plasmid to direct synthesis of the first 72 amino acids of tat protein. Plasmid pREP7 (Invitrogen) was converted to pREP7b by deleting 2,040 bp EBNA-1 coding region and by replacing the pBR322 origin of replication (ori) with the pBluescript KS (Stratagene) ori region. The cDNA for secreted placental alkaline phosphatase (AP) was generated by PCR with the primers (5'-[…]-3')(SEQ ID NO. 3) and (5'-[…]-3') (SEQ ID NO. 4)using the plasmid pGEM-4Z/PLAP489 (American Type Culture Collection) as the template. The 2,000 bp Xba I-Sal I fragment obtained was ligated into a Nhe I/Xho I vector derived from pREP7b to generate the plasmid pREP7b.AP. The 44 bp Xba I-Bgl II fragment from plasmid pMEP4 (Invitrogen)and the 36 bp BamH I-Kpn I fragment from pREP7 were ligated into the Xba I-Kpn I vector fragment from pREP7b.AP to generate the plasmid pMCS.AP. The 720 bp Xho I-Hind III fragment encoding the HIV-LTR promoter from the plasmid pU3R-III-CAT (Sodroski et al., Science 227:171-173, 1985) was ligated into the Xho I-Hind III vector fragment of PMCS.AP to generate the plasmid pHIV.AP. The CMV promoter was derived from the 600 bp Spe I-Asp718 I fragment from pCEP4 (Invitrogen). The 360 bp SV40 early promoter fragments were produced from pSV2tat72 (Frankel et al., Cell 55:1189-1193,1988) by PCR using the primers (5'-[…]-3') (SEQ ID NO. 5) and (5'-[…]-3') (SEQ ID NO. 6). The 480 bp phosphoglycerate kinase (PGK) promoter fragment was amplified from human placental genomic DNA (Promega, Madison, Wis.) based on published sequence (Pfeifer et al., Science 246:810-813, 1990) using the primers (5'-[…]-3') (SEQ ID NO. 7) and (5'-[…]-3') (SEQ ID NO. 8). The above fragments were ligated into the Xba I-Asp718 I vector fragment of pHIV.AP to generate pHIV2.AP, pHIV3.AP, pCMV.AP, pSVE.AP and PPGK.AP respectively. The tat-expression plasmid directed by HIV-LTR promoter, pHIV.tat, was generated by inserting the 400 bp EcoRV-HindIII fragment from pHIV.AP into the PvuII-HindIII vector fragment from pSV2tat72 (Frankel et al., Cell 55:1189-1193, 1988).
Transient transfections with various expression plasmids were performed on a human kidney embryonic cell line 293-EBNA (Invitrogen) using the cationic lipid DOTAP (Boehringer Mannheim). The cell culture media were changed 24 hr after transfection into a serum-free medium AIM V (Life Technologies) before addition of compounds or TNF-α (PeproTech) at the appropriate concentrations. AP activity measured by a colorimetric assay (Berger et al., Gene 66:1-10, 1988) was performed 19-24 hr later.

[2] = system: CMV promoter in 293-EBNA cells; test: AP reporter gene expression from CMV promoter, 293-EBNA cells stably transfected with pCMV.AP; format: cell-based, human cytomegalovirus; human cells
Description: An assay for measuring the anti-viral activity of the compounds involves testing the abilities of the compounds to inhibit gene expression directed by specific viral promoters in cell lines. Specifically, a plasmid construct, pCMV.AP, using the human cytomegalovirus (CMV) enhancer and promoter to direct the expression of the secreted human placental alkaline phosphatase reporter gene were transformed into a tumor cell line (e.g., 293-EBNA cells). The cultured cells were treated with various concentrations of the compounds. The expression of the alkaline phosphatase (AP) reporter gene in the individual cultures can then be measured by following the change in absorbance at A405 of the cell conditioned media in the presence of a suitable substrate (e.g., ortho-nitrophenol phosphate) (Berger et al., Gene 66:1,1988).
The construction of expression vectors for secreted placental alkaline phosphatase (sPAP) was performed by obtaining a mammalian episomal expression vector pBL3, derived from the plasmids pMEP4 and pCEP4 (Invitrogen Corp). Specifically, a 600 bp Spe I--Kpn I fragment spanning the CMV promoter from pCEP4 and a 9500 bp Xba I--Kpn I vector fragment from pMEP4 were isolated and ligated together to form pBL3. Full length sPAP cDNA was amplified by PCR using the plasmid pGEM4Z/SEAP (ATCC) as template with primers 5'-[…]-3' (SEQ ID NO. 1) and 5'-[…]-3' (SEQ ID NO. 2). The PCR product was then digested with Xba I and Sal I and inserted between the Nhe I site and the Xho I site within the multiple cloning region of pBL3. The resulting plasmid was designated as PCMV.AP.

293-EBNA cells [3] = test: Viability of 293-EBNA cells, Alamar Blue; format: cell-based, human
Description: (§3) Cell viability was measured by a colorimetric assay that uses Alamar Blue dye (Alamar, Inc.) to report cell proliferation, viability and cytotoxicity. This vital dye indicates cell activity by serving as substrate for mitochrondrial dehydrogenases for the formation of soluble dyes which can be quantitated by determining the difference in absorbance between A570 and A600 using a plate reader.
as §3, with “[…]” for “colorimetric”
This example illustrates that CT2576 suppressed both tat-dependent and TNF-α induced HIV-LTR transcription with an IC50 of approximately 10 μM. Study of the effects of CT2576 on cell toxicity was performed using the Alamar Blue™ dye (Alamar Biosciences) according to the manufacturer's instructions. CT2576 was not toxic to 293-EBNA cells at concentrations up to 35 μM. To show CT2576 can inhibit HIV expression, CT2576 was tested for the ability to block HIV p24 antigen expression in chronically or acutely infected cells. Specifically, CT2576 inhibited the TNF-α and IL-6 induced and the constitutive expression of HIV in the chronically infected U1 cells and in peripheral blood lymphocytes (PBL) freshly infected with a HIV strain from a clinical isolate with an IC50 of approximately 1 μM. Pharmacological inhibition of synthesis of selected PL may therefore be a novel therapeutic approach to suppression of HIV replication.

U1 cells = test: Cytotoxicity in U1 cells; format: cell-based, human
From the text: We studied the effect of CT-2576 on HIV expression in a chronically HIV-1 infected promonocytic U1 cell line (Folks et al., Science 238:800-802, 1987). […] TNF-α and other cytokines can induce HIV expression in U1 cells. U1 cells also express HIV constitutively when grown to a relatively high density. […] An inhibitor of viral reverse transcriptase is expected to only protect new cells from becoming infected but not to affect viral production from cells already infected with HIV. […] While TNF-α induces HIV expression through activation of NFκB, IL-6 and IL-1 also stimulates HIV expression through other pathways independent of NFκB activation in U1 cells.

293-EBNA cells [4] = system: 293-EBNA cells

Row | Compound | activation of NFκB (NFκB) | AP transcript / mRNA steady-state level (AP mRNA in 293tat cells) | inhibition of AP expression (HIV-LTR promoter) [1] | IC50 ([2]; Homo sapiens, 293-EBNA, FIG. 8, read-out: concentration inhibiting AP activity by 50% (CMV assay)) [µM] | inhibition of AP expression (CMV promoter) ([2]; in words) | cytotoxic effect on 293-EBNA cells (Alamar Blue) (293-EBNA cells [3]) | cytotoxicity in U1 cells at 25 μM (U1 cells; 25 μM, FIG. 12 bottom panel, TNFα) | cytotoxicity in U1 cells (U1 cells; FIG. 12 top panel, constitutive) | effect on cell viability / cytotoxicity (293-EBNA cells [4])
1 | IL-1β: cytokine used as stimulant | NFκB was activated | induction of AP transcripts |  |  |  |  |  |  | 
2 | CCCCCCCCNCC(O)CCCCCCCCCn1c(=O)ccn(C)c1=O (stereo not drawn) [CT1827, 3-(11-octylamino-10-hydroxyundecyl)-1-methyluracil] |  |  | inhibit HIV promoter driven expression | 2 to 6 | inhibit CMV promoter driven expression | no significant cytotoxic effect | some cytotoxicity | some cytotoxicity | minimal cytotoxic effects
